Where two headings read alike, the source gives them in different places.
Key:
[1] = molecular target: TNF-α converting enzyme (TACE) (Homo sapiens, UniProt P78536); test: Test procedure for measuring TACE inhibition (fluorescent peptidyl substrate); format: biochemical
[2] = system: THP-1 cells; test: Human monocytic THP-1 cell differentiation assay for soluble proteins (THP soluble protein assay), LPS-stimulated, TNF-α ELISA; format: cell-based; conditions: for inhibition at 3 µM: Homo sapiens, THP-1; at 3 uM; percent change from vehicle positive control; read-out: TNFalpha at 3 uM) THP (percent change); for THP (% inhibition): Table 1, concentration not given
From the text: Mitogenic stimulation of THP-1 cells cause differentiation into macrophage like cells with concomitant secretion of tumor necrosis factor (TNF-a) and TNF receptor (TNF-R p75/80 and TNF-R p55/60) and Interleukin-8 (IL-8), among other proteins. In addition, non-stimulated THP-1 cells shed both the p75/80 and the p55/60 receptors over time. The release of membrane bound TNF-a and possibly TNF-R p75/80 and TNF-R p55/60, but not IL-8, is mediated by an enzyme called TNF-α converting enzyme or TACE.
THP-1 cells (from ATCC) are a human monocytic cell line which were obtained from the peripheral blood of a person with acute monocytic leukemia. They can be grown in culture and differentiated into macrophage like cells by stimulation with mitogens.
Each vial of cells are cultured for about two weeks prior to being used for an assay and then are used for only 4 to 6 weeks to screen compounds.
Cell exposure to DMSO was limited to 0.1 % final concentration. […] Compounds can be evaluated for their effect on basal (non-stimulated) shedding of the receptors by replacing the LPS with […] of THP-1 media. Plates are placed into an incubator set at 5% CO2 and at 37°C. After 4 hours of incubation, […] of tissue culture supernatant (TCS) is removed for use in an TNF-α ELISA. Following 24 hours of incubation, […] of TCS is removed and used for analysis in TNF-R p75/80, TNF-R p55/60 and IL-8 ELISAs.
In addition, at the 24 hours timepoint, and the cells for each treatment group are collected by resuspension in 500 µl/well of THP-1 media and transferred into a FACS tube. […] The samples are run on a Becton Dickinson FaxCaliber FLOW cytometry machine and the amount of dye taken up by each cell is measured in the high red wavelength (FL3). Only cells with compromised membranes (dead or dying) can take up PI. The percent of live cells is calculated by the number of cells not stained with PI, divided by the total number of cells in the sample. The viability values calculated for the drug treated groups were compared to the viability value calculated for the vehicle treated mitogen stimulated group ("vehicle positive control") to determine the "percent change from control". This "percent change from control" value is an indicator of drug toxicity.
The quantity of soluble TNF-α, TNF-R p75/80 and TNF-R p55/60 and IL-8 in the TCS of the THP-1 cell cultures are obtained with commercially available ELISAs from R&D Systems, by extrapolation from a standard curve generated with kit standards. The number of cells that either take up or exclude PI are measured by the FLOW cytometry machine and visualized by histograms using commercially available Cytologic software for each treatment group including all controls.
Biological variability in the magnitude of the response of THP-1 cell cultures requires that experiments be compared on the basis of percent change from "vehicle positive control" for each drug concentration. Percent change in each soluble protein evaluated from the "vehicle positive control" was calculated for each compound concentration with the following formula: % Change =(pg/ml (compound) - pg/ml (veh pos control))/(pg/ml (veh pos control) - pg/ml (veh neg control))x 100 [formula]
For the soluble protein (TNF-a, p75/80, p55/60, IL-8) studies under stimulated conditions, the mean pg/ml of duplicate wells were determined and the results expressed as percent change from "vehicle positive control". For the soluble protein (p75/80 and p55/60 receptors) studies under non-stimulated conditions, the mean pg/ml of duplicate wells were determined and the results expressed as percent change from […] utilizing the following formula: % Change =(pg/ml (compound neg control) - pg/ml (veh neg control))/(pg/ml (veh neg control))X 100 [formula]
IC50 values for each compound are calculated by non-linear regression analysis using customized software utilizing the JUMP statistical package.

[3] = molecular target: MMP-13 (Homo sapiens, UniProt P45452); test: MMP-13 inhibition (thiopeptide or fluorescent peptide substrate); format: biochemical; conditions: read-out: MMP13; for inhibition at 1 µM: % at 1 um (specified in cell); for inhibition at 10 µM: % @ 10µM per footnote a
From the text: Alternatively, a fluorescent peptide substrate is used.

[4] = molecular target: T1, MMP-1 (Homo sapiens, UniProt P03956); test: MMP-1 inhibition (thiopeptide or fluorescent peptide substrate); conditions: for inhibition at 10 µM: read-out: MMP1
T1 sequence (P03956 100-469): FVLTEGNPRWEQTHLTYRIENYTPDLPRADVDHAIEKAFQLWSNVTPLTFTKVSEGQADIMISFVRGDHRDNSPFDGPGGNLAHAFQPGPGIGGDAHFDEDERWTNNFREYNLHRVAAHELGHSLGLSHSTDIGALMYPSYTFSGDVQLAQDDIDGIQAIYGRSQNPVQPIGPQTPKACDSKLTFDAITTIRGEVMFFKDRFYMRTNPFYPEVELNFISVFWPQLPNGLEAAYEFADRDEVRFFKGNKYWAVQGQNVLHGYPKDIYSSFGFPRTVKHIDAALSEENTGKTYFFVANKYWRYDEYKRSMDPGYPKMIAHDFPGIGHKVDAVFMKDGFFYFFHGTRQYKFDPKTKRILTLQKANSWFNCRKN
Experimental: The enzyme activity is measured by the rate of the color increase. The thiopeptide substrate is made up fresh as a 20 mM stock in 100% DMSO and the DTNB is dissolved in 100% DMSO as a 100 mM stock and stored in the dark at room temperature. Both the substrate and DTNB are diluted together to 1 mM with substrate buffer (50 mM HEPES pH 7.5, 5 mM CaCl2) before use. The stock of enzyme is diluted with buffer (50 mM HEPES, pH 7.5, 5 mM CaCl2, 0.02% Brij) to the desired final concentration.
Alternatively, a fluorescent peptide substrate is used. In this test procedure, the peptide substrate contains a fluorescent group and a quenching group. Upon cleavage of the substrate by an MMP, the fluorescence that is generated is quantitated on the fluorescence plate reader. The assay is run in HCBC assay buffer (50mM HEPES, pH 7.0, 5 mM Ca^+2, 0.02% Brij, 0.5% Cysteine), with human recombinant MMP-1, MMP-9, or MMP-13. The substrate is dissolved in methanol and stored frozen in 1 mM aliquots. For the assay, substrate and enzymes are diluted in HCBC buffer to the desired concentrations. Compounds are added to the 96 well plate containing enzyme and the reaction is started by the addition of substrate.
For either the thiopeptide or fluorescent peptide test procedures, the slope of the line is calculated and represents the reaction rate. […] The mean (x±sem) of the control rate is calculated and compared for statistical significance (p<0.05) with drug-treated rates using Dunnett's multiple comparison test.

[5] = second table, IC50 (nM) per footnote a

TNF-α converting enzyme (TACE), sequence (P78536 215-824): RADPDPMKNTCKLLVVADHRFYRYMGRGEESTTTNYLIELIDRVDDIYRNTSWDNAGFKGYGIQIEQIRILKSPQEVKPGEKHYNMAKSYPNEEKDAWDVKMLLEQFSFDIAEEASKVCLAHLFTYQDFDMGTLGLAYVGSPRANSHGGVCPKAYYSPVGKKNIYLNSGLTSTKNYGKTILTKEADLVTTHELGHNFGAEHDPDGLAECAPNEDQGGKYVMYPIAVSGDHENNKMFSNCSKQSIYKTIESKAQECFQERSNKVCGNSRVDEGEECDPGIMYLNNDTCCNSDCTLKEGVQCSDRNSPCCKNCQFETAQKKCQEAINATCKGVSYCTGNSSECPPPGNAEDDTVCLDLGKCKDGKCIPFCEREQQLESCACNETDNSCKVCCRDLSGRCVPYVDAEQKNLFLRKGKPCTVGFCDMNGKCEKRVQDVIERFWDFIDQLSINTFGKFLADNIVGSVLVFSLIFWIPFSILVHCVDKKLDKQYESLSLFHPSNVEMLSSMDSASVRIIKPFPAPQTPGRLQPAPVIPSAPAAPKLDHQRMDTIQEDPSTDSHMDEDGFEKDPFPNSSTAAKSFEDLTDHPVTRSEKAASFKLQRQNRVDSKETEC

Structure (SMILES)	IC50 [1, 5] [nM]	inhibition at 3 µM [2] [%]	inhibition at 10 µM [4] [%]	inhibition at 10 µM [3] [%]	other results
CC#CCOc1ccc(S(=O)(=O)C(C(=O)NO)c2ccc(Br)cc2)cc1 (centres unmarked) [Example 88, 2-(4-bromophenyl)-2-{[4-(2-butynyloxy)phenyl]sulfonyl}-N-hydroxyacetamide]	226	4	20		inhibition at 1 µM [3]: 21%
CC#CCOc1ccc(SC(C(=O)NO)c2cccc(Cl)c2)cc1 (centres unmarked) [Example 83, 2-{[4-(2-butynyloxy)phenyl]sulfanyl}-2-(3-chlorophenyl)-N-hydroxyacetamide]	133	0	9.4	36.4	
CC#CCOc1ccc(S(=O)(=O)C(C(=O)NO)C2CCN(C(=O)c3ccccc3)CC2)cc1 (centres unmarked) [Example 120, 2-(1-benzoyl-4-piperidinyl)-2-{[4-(2-butynyloxy)phenyl]sulfonyl}-N-hydroxyacetamide]	88.5	63	24		inhibition at 1 µM [3]: 51%
CC#CCOc1ccc([S+]([O-])C(C(=O)NO)c2ccc(OCC)cc2)cc1 (centres unmarked) [Example 101, 2-{[4-(2-Butynyloxy)phenyl]sulfinyl}-N-hydroxy-2-(4-ethoxyphenyl) acetamide]	76		8	51	
CC#CCOc1ccc(SC(C(=O)NO)C2CCCCC2)cc1 (centres unmarked) [Example 73, 2-{[4-(2-butynyloxy)phenyl]sulfanyl}-2-cyclohexyl-N-hydroxyacetamide]		0	4.8		
CC#CCOc1ccc(S(=O)(=O)C(C(=O)NO)c2cccc3ccccc23)cc1 (centres unmarked) [Example 94, 2-{[4-(2-Butynyloxy)phenyl]sulfonyl}-N-hydroxy-2-(1-naphthyl)acetamide]	423	-11	8	34	
CC#CCOc1ccc(SC(C(=O)NO)c2ccc(-c3cccs3)cc2)cc1 (centres unmarked) [Example 89, 2{[4-(2-butynyloxy)phenyl]sulfanyl}-N-hydroxy-2-[4-(2-thienyl)phenyl]acetamide]	617	2	0	5	
CC#CCOc1ccc(S(=O)(=O)C(C(=O)NO)c2cccc(Cl)c2)cc1 (centres unmarked) [Example 84, 2-{[4-(2-butynyloxy)phenyl]sulfonyl}-2-(3-chlorophenyl)-N-hydroxyacetamide]		-7	10		inhibition at 1 µM [3]: 23%
CC#CCOc1ccc([S+]([O-])[C@H](C(=O)NO)c2ccc(Br)cc2)cc1 (single isomer, unassigned) [Example 86]	60	-2	24	51	
CC#CCOc1ccc(SC(C(=O)NO)c2ccc3ccccc3c2)cc1 (centres unmarked) [Example 114, 2-{[4-(2-Butynyloxy)phenyl]sulfanyl}-2-(2-naphthyl)-N-hydroxyacetamide]		12	3.5	30.5	inhibition at 10 µM ([1]; % @ 10µM per footnote a, read-out: TACE IC50): 40.9%
CC#CCOc1ccc([S+]([O-])[C@@H](C(=O)NO)c2ccc(Br)cc2)cc1 (single isomer, unassigned) [Example 87]	336		17		inhibition at 1 µM [3]: 33%
CC#CCOc1ccc([S+]([O-])C(C(=O)NO)c2ccccc2OC)cc1 (centres unmarked) [Example 99, 2-(2-methoxyphenyl)-2-{[4-(2-butynyloxy)phenyl]sulfinyl}-N-hydroxyacetamide]		1	0	33.6	IC50 ([1]; second table): 1100 nM
CC#CCOc1ccc(S(=O)(=O)C(C(=O)NO)c2ccc3ccccc3c2)cc1 (centres unmarked) [Example 116, 2-{[4-(2-butynyloxy)phenyl]sulfonyl}-2-(2-naphthyl)-N-hydroxyacetamide]	495	7	5.6		inhibition at 1 µM [3]: 33.6%
CC#CCOc1ccc(SC(C)C(=O)NO)cc1 (centres unmarked) [Example 4, 2-(4-But-2-ynyloxy-phenylsulfanyl)-N-hydroxy-propionamide]					IC50 ([1]; Table 1): 47.2 nM; THP (% inhibition) [2]: 2%
CC#CCOc1ccc(S(=O)(=O)C(C(=O)NO)c2cccc(Br)c2)cc1 (centres unmarked) [Example 106, 2-{[4-(2-Butynyloxy)phenyl]sulfonyl}-2-(3-bromophenyl)-N-hydroxyacetamide]	65	-5	0	56	
CC#CCOc1ccc(S(=O)(=O)C(CCCCCC)C(=O)NO)cc1 (centres unmarked) [Example 5, 2-(4-But-2-ynyloxy-benzenesulfonyl)-octanoic acid hydroxamide]					THP (% inhibition) [2]: 6%; IC50 ([4]; read-out: MMP1 IC50, Table 1): 10000 nM
CC#CCOc1ccc([S+]([O-])[C@@H](C(=O)NO)c2ccc(-c3cccs3)cc2)cc1 (stereo partly drawn) [Example 90, (2R)-2-{[4-(2-butynyloxy)phenyl]sulfinyl}-N-hydroxy-2-[4-(2-thienyl)phenyl] ethanamide]		1	7		inhibition at 1 µM [3]: 16%
CC#CCOc1ccc([S+]([O-])C(CCCCNC(=O)CNC(=O)CCCc2cccs2)C(=O)NO)cc1 (centres unmarked) [Example 58]					IC50 ([1]; Table 1): 20.1 nM; IC50 [4]: 4600 nM
CC#CCOc1ccc([S+]([O-])C(CCCCNC(=O)C2c3ccccc3Oc3ccccc32)C(=O)NO)cc1 (centres unmarked) [Example 29, 9H-Xanthene-9-carboxylic acid [5-(4-but-2-ynyloxy-benzenesulfinyl)-5-hydroxycarbamoyl-pentyl]-amide]					IC50 ([1]; Table 1): 18.9 nM; IC50 [4]: 2000 nM
CC#CCOc1ccc(SC(C(=O)NO)c2ccc(OCC)cc2)cc1 (centres unmarked) [Example 100, 2-{[4-(2-butynyloxy)phenyl]sulfanyl}-N-hydroxy-2-(4-ethoxyphenyl) acetamide]	100		2	15	
CC#CCOc1ccc(SC(C(=O)NO)c2cccc(Br)c2)cc1 (centres unmarked) [Example 103, 2-{[4-(2-Butynyloxy)phenyl]sulfanyl}-N-hydroxy-2-(3-bromophenyl) acetamide]	113		4	12	
CC#CCOc1ccc(S(=O)(=O)C(C(=O)NO)C2CCOCC2)cc1 (centres unmarked) [Example 122, 2-{[4-(2-Butynyloxy)phenyl]sulfonyl}-N-hydroxy-2-tetrahydro-2H-pyran-4-yl-acetamide]		36	9	57	
CC#CCOc1ccc(OCCC(=O)NO)cc1 [Example 9, 3-(4-But-2-ynyloxy-phenoxy)-N-hydroxy-propionamide]					IC50 ([1]; Table 1): 30 nM; THP (% inhibition) [2]: 16%; IC50 [4]: 10000 nM
